Key:
[1] = tested on: TNFα expression in Raw264.7 macrophages; assay: PAMP induced TNFα expression in Raw264.7 macrophages; type: cell-based, mouse; settings: flagellin 50 ng/ml
[2] = tested on: TNBS mediated chronic colitis; assay: TNBS mediated chronic colitis in mice, intracolonic mCRAMP; type: in vivo; settings: for colonic collagen deposition / TNBS induced colonic TNFα protein expression / colonic colla2 mRNA: intracolonic
Experimental: FIG. 1A is an illustration of the experimental plan of TNBS mediated chronic colitis. Wild-type and […] mice were injected with TNBS solution (0.5-1 mg per 20 g mice) in 30% ethanol or 30% ethanol only (vehicle control) under transient isoflurane anesthesia. […] All ethanol treated groups had approximately 20% body weight gain. […] Results are representative of n=6 mice per group.
Collagen was stained in blue. Collagen deposited in mucosal and submucosal layer of TNBS treated wild-type mice was reduced by CRAMP treatment. […] Intracolonic treatment of mCRAMP reduced colonic colla2 mRNA and collagen deposition in both WT (p=0.0364) and Camp^−/− (p=0.04) mice. Results are representative of n=6 mice per group.
Fibroblasts accumulated in the mucosal and submucosal locations as collagen deposition. […] Three different locations (3 separate images) per sample were counted. […] Cell migration was not affected by LL-37 (0-10 μM). Results are representative of 3 independent experiments.

[3] = tested on: Akt and ERK phosphorylation in Raw 264.7 macrophages; assay: LPS induced Akt and ERK phosphorylation in Raw 264.7 macrophages; type: cell-based, mouse; settings: mCRAMP 10 μM; 30 minutes
From the text: […]. LPS induced TNFα expression is Akt dependent. […] All experiments are representative of 3 independent experiments.

[4] = tested on: TNFα expression in Raw264.7 macrophages; assay: PAMP induced TNFα expression in Raw264.7 macrophages; type: cell-based, mouse
Experimental: To identify the anti-inflammatory mechanism of cathelicidin, human PBMCs and mouse macrophages to were exposed to PAMP signals (LPS and E. coli DNA) in the presence of cathelicidin LL-37 or mCRAMP (1-10 μM).

[5] = tested on: DSS mediated colitis; settings: intracolonic exogenous peptide; Tai et al. 2007; cited from earlier work
[6] = tested on: TNBS acute colitis; assay: TNBS treated acute colitis in mice, intracolonic mCRAMP; type: in vivo; settings: for colonic 16S expression: intracolonic
From the text: FIG. 20A is an illustration of TNBS experimental plan. […] Experiments included n=6 mice per group.
FIGS. 21B and 21C show colonic Camp mRNA expression of mice. […] There was no significant difference in 16S expression among wild-type and Camp−/− mice. n=6 mice per group.

Q: Which “flagellin induced TNFα expression” value [1] does the source give for mCRAMP here?
A: Its value is “no inhibitory effect”.

Q: And the colonic collagen deposition ([2]; Camp−/− mice)?
A: The colonic collagen deposition was “reduced”.

Q: And the “TNBS induced colonic TNFα protein expression” value ([2]; Camp−/− mice, p=0.0054)?
A: Its value is “significantly reduced TNBS induced TNFα protein expression”.

Q: And the “colonic colla2 mRNA” value ([2]; Camp−/− mice, p=0.04)?
A: The value was “reduced”.

Q: What about the “histology score (H&E)” value ([2]; Camp−/− mice, p=0.04) of the same substance?
A: Its value is “significantly reduced histology score”.

Q: What about the “percent of body weight change (week 0 to week 7)” value ([2]; TNBS treated Camp−/− mice) of the same substance?
A: Its value is “significant body weight loss regardless of mCRAMP treatment”.

Q: What about the “collagen deposited in mucosal and submucosal layer (Masson Trichrome staining)” value ([2]; TNBS treated wild-type mice) of the same substance?
A: Its value is “reduced”.

Q: And the “percent of body weight change (week 0 to week 7)” value ([2]; TNBS treated wild-type mice, p=0.01)?
A: The value was “restored the body weight gain”.

Q: What about the “colonic vimentin mRNA expression” value ([2]; WT and Camp−/− mice) of the same substance?
A: Its value is “did not affect”.

Q: What about the “colonic α-SMA mRNA expression” value ([2]; WT and Camp−/− mice) of the same substance?
A: Its value is “did not affect”.

Q: What about the colonic collagen deposition ([2]; WT mice) of the same substance?
A: The colonic collagen deposition was “reduced”.

Q: And the “TNBS induced colonic TNFα protein expression” value ([2]; WT mice, p=0.0127)?
A: The value was “significantly reduced TNBS induced TNFα protein expression”.

Q: What about the “colonic colla2 mRNA” value ([2]; WT mice, p=0.0364) of the same substance?
A: The value was “reduced”.

Q: What about the “fibroblast accumulation (number of fibroblasts per field, vimentin immunohistochemistry)” value ([2]; chronic TNBS colitis) of the same substance?
A: The value was “not affected”.

Q: And the “TNBS induced intestinal fibrosis” value ([2]; mCRAMP 5 mg/kg intracolonically)?
A: Its value is “significantly reduces TNBS induced intestinal fibrosis”.

Q: And the “histology score (H&E)” value ([2]; wild-type mice, p=0.03)?
A: The value was “significantly reduced histology score”.

Q: What about the “LPS induced Akt phosphorylation” value [3] of the same substance?
A: Its value is “significantly suppressed”.

Q: And the “LPS induced ERK phosphorylation” value [3]?
A: Its value is “significantly suppressed”.

Q: What about the “LPS induced TNF mRNA expression” value ([4]; mCRAMP 10 μM, 6 and 16 hours) of the same substance?
A: Its value is “did not alter”.

Q: What about the “LPS induced TNFα protein expression in conditioned media” value ([4]; mCRAMP 10 μM, LPS 0.1 μg/ml, 16 hours) of the same substance?
A: The value was “significantly reduced”.

Q: What about the “E. coli DNA induced TNFα expression” value ([4]; mCRAMP 1-10 μM, E. coli DNA 0.5 μg/ml, 16 hours) of the same substance?
A: Its value is “no inhibitory effect”.

Q: And the DSS mediated colitis [5]?
A: Its DSS mediated colitis is “ameliorates DSS mediated colitis”.

Q: What about the “colonic TNFα levels” value ([6]; Camp−/− mice) of the same substance?
A: The value was “significantly reduced colonic TNFα levels”.

Q: And the “colonic 16S expression” value ([6]; Camp−/− mice)?
A: The value was “significantly reduced colonic 16S expression”.

Q: What about the “histological damage (histological score)” value ([6]; Camp−/− mice, p=0.0484) of the same substance?
A: Its value is “significantly reduced histological damage”.

Q: What about the “colonic TNFα levels” value ([6]; wild-type mice) of the same substance?
A: Its value is “significantly reduced colonic TNFα levels”.

Q: And the “colonic 16S expression” value ([6]; wild-type mice)?
A: Its value is “significantly reduced colonic 16S expression”.

Q: What about the “histological damage (histological score)” value ([6]; wild-type mice, p=0.0006) of the same substance?
A: Its value is “significantly reduced histological damage”.

Source: US9772334B2, “Inflammatory bowel disease markers and therapies for colitis-associated intestinal fibrosis” (THE REGENTS OF THE UNIVERSITY OF CALIFORNIA, priority 2012, dated 2017)
